Like-named read-outs stand apart in the source and are kept apart here.
Legend:
[1] = system: caterpillars of the armyworm (Spodoptera frugiperda); test: Spodoptera frugiperda test (cabbage leaves, dip); assay type: in vivo; details: 168 h, after 7 d, cabbage leaves dipped, read-out: Kill rate in % after 7 d
Method: Spodoptera frugiperda Test
(§1) • Solvent: 7 parts by weight of dimethylformamide • Emulsifier: 2 parts by weight of alkylaryl polyglycol ether
(§2) After the desired period of time, the kill in % is determined. 100% means that all caterpillars have been killed; 0% means that none of the caterpillars have been killed.

[2] = system: peach aphid (Myzus persicae); test: Myzus test (cabbage leaves, dip); assay type: in vivo; details: 500 ppm, cabbage leaves dipped
Method: as §1
(§3) To produce a suitable preparation of active compound, 1 part by weight of active compound is mixed with the stated amounts of solvent and emulsifier, and the concentrate is diluted with emulsifier-containing water to the desired concentration.
Cabbage leaves (Brassica oleracea) which are heavily infested by the peach aphid (Myzus persicae) are treated by being dipped into the preparation of active compound of the desired concentration.
After the desired period of time, the kill in % is determined. 100% means that all aphids have been killed; 0% means that none of the aphids have been killed.

[3] = logP determination by reversed-phase HPLC (EEC Directive 79/831 Annex V.A8); assay type: physicochemical
Text: (a) Mobile phases for the determination of the acidic range: 0.1% aqueous phosphoric acid, acetonitrile; linear gradient from 10% acetonitrile to 90% acteonitrile—the corresponding measurement results in Table 1 are marked^a). […]

[4] = system: cotton aphid (Aphis gossypii); test: Aphis gossypii test (cotton leaves, dip); assay type: in vivo; details: 500 ppm, cotton leaves dipped
Method: as §1, §3
Cotton leaves (Gossypium hirsutum) which are heavily infested by the cotton aphid (Aphis gossypii) are treated by being dipped into the preparation of active compound of the desired concentration.
After the desired period of time, the kill in % is determined. 100% means all aphids have been killed; 0% means that none of the aphids have been killed.

[5] = system: greenhouse red spider mite (Tetranychus urticae); test: Tetranychus test (OP-resistant/dip treatment); assay type: in vivo; details: 168 h, 100 ppm, after 7 d, OP-resistant, bean plants dipped, read-out: Kill rate in % after 7 d
Method: Tetranychus Test (OP-Resistant/Dip Treatment)
as §1
After the desired period of time, the effect in % is determined. 100% means that all spider mites have been killed; 0% means that none of the spider mites have been killed.

[6] = system: caterpillars of the diamondback moth (Plutella xylostella); test: Plutella test (cabbage leaves, dip); assay type: in vivo; details: 500 ppm, cabbage leaves dipped
Method: as §1, §3
Cabbage leaves (Brassica oleracea) are treated by being dipped into the preparation of active compound of the desired concentration and are populated with caterpillars of the diamondback moth (Plutella xylostella) while the leaves are still moist.
as §2

[7] = system: larvae of the mustard beetle (Phaedon cochleariae); test: Phaedon larvae test (cabbage leaves, dip); assay type: in vivo; details: 168 h, after 7 d, cabbage leaves dipped, read-out: Kill rate in % after 7 d
Method: as §1
After the desired period of time, the kill in % is determined. 100% means that all beetle larvae have been killed; 0% means that none of the beetle larvae have been killed.

[8] = system: Heliothis armigera caterpillars; test: Heliothis armigera test (soya bean shoots, dip); assay type: in vivo; details: 500 ppm, soya bean shoots dipped
Method: as §1, §3
Soya bean shoots (Glycine max) are treated by being dipped into the preparation of active compound of the desired concentration and are populated with Heliothis annigera caterpillars while the leaves are still moist.
as §2

[9] = reversed-phase HPLC column (C18); acidic range: 0.1% aqueous phosphoric acid/acetonitrile gradient, C18, 43° C.; read-out: logP a)
[10] = reversed-phase HPLC column (C18), pH 2.3, read-out: logP (pH 2.3)

FC(F)=CCCSc1nccc(-n2nccn2)n1 [Example 26]
pest or weed control at 500 ppm [1]: 100%
Kill rate in % after 6 d [2]: 99%
chromatographic logP [3, 9]: 2.7
Kill rate in % after 6 d [4]: 95%

FC(F)=CCCSc1nccc(-c2cnccn2)n1 [Example 14]
Kill rate in % after 6 d [2]: 95%
pest or weed control at 100 ppm [5]: 100%
chromatographic logP [3, 9]: 2.91

COc1ccnc(-c2ccnc(SCCC=C(F)F)n2)c1 [Example 8]
Kill rate in % after 6 d [2]: 95%
chromatographic logP [3, 9]: 2.41
Kill rate in % after 6 d [4]: 99%

FC(F)=CCCSc1nccc(-c2nccc3ccccc23)n1 [Example 7]
Kill rate in % after 6 d [2]: 100%
pest or weed control at 100 ppm [5]: 100%
chromatographic logP [3, 9]: 3.67
Kill rate in % after 6 d [4]: 98%
Kill rate in % after 7 d [6]: 100%

FC(F)=CCCSc1nccc(-n2cccn2)n1 [Example 1, 2-[(4,4-difluoro-3-butenyl)-sulfanyl]-4-(pyrazol-1-yl)-pyrimidine]
pest or weed control at 500 ppm [7]: 100%
Kill rate in % after 6 d [2]: 99%
pest or weed control at 100 ppm [5]: 100%
chromatographic logP [3, 10]: 3.3
Kill rate in % after 7 d [8]: 100%
Kill rate in % after 7 d [6]: 100%

COc1cccnc1-c1ccnc(SCCC=C(F)F)n1 [Example 37]
pest or weed control at 100 ppm [5]: 100%
chromatographic logP [3, 9]: 2.14
Kill rate in % after 7 d [8]: 100%
Kill rate in % after 7 d [6]: 100%

FC(F)=CCCSc1nccc(-n2ccnn2)n1 [Example 25]
pest or weed control at 100 ppm [5]: 100%
chromatographic logP [3, 9]: 2.62
Kill rate in % after 7 d [8]: 100%
Kill rate in % after 7 d [6]: 100%

FC(F)=CCCSc1nccc(-c2nccs2)n1 [Example 11]
pest or weed control at 500 ppm [7]: 95%
Kill rate in % after 6 d [2]: 95%
chromatographic logP [3, 9]: 3.33

Cc1c(-c2ccnc(SCCC=C(F)F)n2)sc2ccccc12 [Example 54]
pest or weed control at 500 ppm [1]: 100%
pest or weed control at 100 ppm [5]: 100%
chromatographic logP [3, 9]: 5.25
Kill rate in % after 7 d [6]: 100%

FC(F)=CCCSc1nccc(-c2ccccn2)n1 [Example 2]
pest or weed control at 500 ppm [7]: 100%
Kill rate in % after 6 d [2]: 100%
chromatographic logP [3, 10]: 3.33
Kill rate in % after 6 d [4]: 99%
